Measured values from ChEMBL document CHEMBL3046521, “Synthesis and antitumor activity of (4-hydroxyphenyl)[5-substituted alkyl/aryl)-2-thioxo-1,3,4-thiadiazol-3-yl]methanone and [(3,4-disubstituted)-1,3-thiazol-2ylidene]-4-hydroxybenzohydrazide” (2011).

Test system: SK-MEL-5
Assay: Anticancer activity in Homo sapiens (human) SK-MEL-5 cells assessed as cell growth at 10^-5 M after 48 hr by SRB assay
Assay type: functional
Conditions: SK-MEL-5, 48 h, read-out: Activity

Cc1ccc(-c2cs/c(=N\NC(=O)c3ccc(O)cc3)n2-c2c(C)cccc2C)cc1
growth at 10 µM: 5.18%
